Measured values: patent publication US20230150929A1, “SELECTIVE NON-CYCLIC NUCLEOTIDE ACTIVATORS FOR THE CAMP SENSOR EPAC1” (The Board of Regents of The University of Texas System, priority 2020, published 2023)

Legend:
EPAC1-ΔDEP (aa. 149-881) = target: T1, EPAC1-ΔDEP (aa. 149-881) (Homo sapiens, UniProt O95398); assay: 8-NBD-cAMP competition binding assay, EPAC1-ΔDEP; conditions: eleven-point dose-response 1-100 µM; mean ± SEM
T1 construct: EPAC1-ΔDEP (149-881); GST (N); made in house; host or cells: Escherichia coli BL21 Star (DE3)
T1 sequence (O95398 149-881 isoform O95398-3): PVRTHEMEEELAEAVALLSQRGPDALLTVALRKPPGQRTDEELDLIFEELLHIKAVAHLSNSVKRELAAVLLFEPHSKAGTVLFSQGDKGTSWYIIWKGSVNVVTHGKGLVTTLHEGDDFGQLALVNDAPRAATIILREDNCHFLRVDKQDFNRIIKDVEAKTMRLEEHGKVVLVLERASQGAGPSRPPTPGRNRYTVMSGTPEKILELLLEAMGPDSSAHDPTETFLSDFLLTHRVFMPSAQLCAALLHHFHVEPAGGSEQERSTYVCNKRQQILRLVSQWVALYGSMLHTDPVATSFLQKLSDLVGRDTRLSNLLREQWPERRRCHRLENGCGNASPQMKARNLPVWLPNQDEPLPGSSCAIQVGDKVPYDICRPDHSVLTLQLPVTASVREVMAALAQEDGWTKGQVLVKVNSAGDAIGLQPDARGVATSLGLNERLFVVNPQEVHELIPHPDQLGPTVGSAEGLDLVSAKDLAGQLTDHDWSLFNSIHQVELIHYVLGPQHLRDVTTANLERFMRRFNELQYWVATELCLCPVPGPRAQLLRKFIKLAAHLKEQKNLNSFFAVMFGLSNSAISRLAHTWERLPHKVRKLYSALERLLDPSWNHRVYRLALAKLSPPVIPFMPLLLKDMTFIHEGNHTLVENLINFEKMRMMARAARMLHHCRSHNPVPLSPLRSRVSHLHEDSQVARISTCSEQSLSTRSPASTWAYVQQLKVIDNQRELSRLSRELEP
Excerpt: Recombinant Protein Purification.
8-NBD-cAMP Competition Binding Assay.

EPAC1-CNBD = target: T2, EPAC1-CNBD (Homo sapiens, UniProt O95398); assay: 8-NBD-cAMP competition binding assay, EPAC1-CNBD; conditions: for EPAC1 binding potency / affinity in words: SAR comment on RFI, mostly relative to 3 or 9a; for RFI (%) (relative fluorescence intensity), Table 4: compound 10 µM, EPAC1-CNBD 0.8 µM, 8-NBD-cAMP 62.5 nM, mean ± SEM, lower RFI = stronger binding; for IC50: read-out: IC50 for the EPAC1-CNBD, dose-response, FIG. 3; for IC50 values as EPAC1 binders (in words): summary statement
T2 sequence (O95398 169-318 isoform O95398-3): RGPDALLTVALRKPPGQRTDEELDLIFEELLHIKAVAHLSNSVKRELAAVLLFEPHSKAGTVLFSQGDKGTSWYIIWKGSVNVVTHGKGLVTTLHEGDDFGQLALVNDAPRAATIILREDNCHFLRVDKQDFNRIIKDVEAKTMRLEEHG

EPAC1 = target: T3, EPAC1 (Homo sapiens, UniProt O95398); assay: EPAC1 immunoprecipitation with activation-selective antibody in HEK293T cells; type: cell-based; parameters: expressed in transfected cells; conditions: versus vehicle-treated control, FIG. 10
T3 sequence (O95398 1-923): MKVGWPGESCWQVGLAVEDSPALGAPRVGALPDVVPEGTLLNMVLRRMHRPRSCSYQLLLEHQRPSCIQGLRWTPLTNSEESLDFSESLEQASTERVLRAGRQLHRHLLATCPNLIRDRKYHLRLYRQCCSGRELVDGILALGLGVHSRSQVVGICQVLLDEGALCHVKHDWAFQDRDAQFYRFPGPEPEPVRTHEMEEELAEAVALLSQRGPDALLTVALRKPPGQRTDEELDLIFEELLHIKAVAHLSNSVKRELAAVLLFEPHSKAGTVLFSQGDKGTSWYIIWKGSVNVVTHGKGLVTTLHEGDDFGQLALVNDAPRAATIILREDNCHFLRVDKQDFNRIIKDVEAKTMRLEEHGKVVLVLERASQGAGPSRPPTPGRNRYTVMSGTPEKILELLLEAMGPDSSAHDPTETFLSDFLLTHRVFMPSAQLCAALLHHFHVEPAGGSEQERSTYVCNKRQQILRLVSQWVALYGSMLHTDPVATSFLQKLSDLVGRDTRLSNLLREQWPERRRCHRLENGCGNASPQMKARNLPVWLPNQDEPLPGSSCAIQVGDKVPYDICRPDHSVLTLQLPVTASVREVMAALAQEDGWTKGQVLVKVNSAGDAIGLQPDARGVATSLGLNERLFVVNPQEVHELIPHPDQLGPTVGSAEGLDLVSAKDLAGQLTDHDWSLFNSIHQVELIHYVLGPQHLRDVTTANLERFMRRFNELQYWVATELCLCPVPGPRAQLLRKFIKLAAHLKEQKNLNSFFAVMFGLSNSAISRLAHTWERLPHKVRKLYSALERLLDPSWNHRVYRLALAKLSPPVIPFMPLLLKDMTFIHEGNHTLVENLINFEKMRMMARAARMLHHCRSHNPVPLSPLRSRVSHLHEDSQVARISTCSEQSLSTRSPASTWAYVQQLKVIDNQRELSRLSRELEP
Experimental: FIG. 10. Ability of selected compounds to interact with EPAC1 in cells. HEK293T cells stably transfected with EPAC1 were treated with hit compounds from the screen. EPAC1 was immunoprecipitated from cell lysates using an activation-selective antibody, visualized by western blotting and its levels were quantified densitometrically. Cyclic nucleotide EPAC1 agonist 2 was used as positive control. […] Data from at least three independent experiments are presented in the bar graph as mean ± SEM with significant increases in immunoprecipitated EPAC1 levels in comparison to vehicle-treated control indicated; ^∗∗ p < 0.01, ^∗∗∗ p < 0.001.
SDS-PAGE and Western Blotting. Samples were prepared by mixing equal volumes of cell lysate and 2x SDS sample loading buffer and denaturing for 5 min at 95° C., unless indicated otherwise. Protein samples were separated by SDS-PAGE on 10% (v/v) polyacrylamide gels, for EPAC1 and VASP, or on 12.5% (v/v), for Rap1, and then transferred to nitrocellulose membranes. Membranes were then blocked for 1 h at room temperature in 5% (w/v) non-fat dry milk or 5% (w/v) BSA in Tris-buffered saline containing 0.1% (v/v) Tween 20, followed by an overnight incubation with primary antibody diluted in blocking buffer at 4° C. Subsequently, the membranes were incubated with appropriate horseradish peroxidase-conjugated secondary antibodies for 1 h at room temperature. For signal detection the SuperSignal West Pico PLUS Chemiluminescent Substrate (Thermo Scientific) was used. Images were acquired using the Fusion FX7 camera platform (Vilber). Densitometry was performed with ImageJ.

| Compound | IC50 (EPAC1-ΔDEP (aa. 149-881)) [nM] | EPAC1 binding potency / affinity in words (EPAC1-CNBD) | RFI (%) (relative fluorescence intensity), Table 4 (EPAC1-CNBD) | IC50 (EPAC1-CNBD) [nM] | IC50 values as EPAC1 binders (in words) (EPAC1-CNBD) | EPAC1 immunoprecipitation with activation-selective antibody (EPAC1) |
| --- | --- | --- | --- | --- | --- | --- |
| COc1ccc(S(=O)(=O)NC(=O)COc2ccc3ccccc3c2)c(OC)c1 [Compound 25g, N-((2,4-Dimethoxyphenyl)sulfonyl)-2-(naphthalen-2-yloxy)acetamide] | 4900 | much more potent | 23 ± 4 | 4800 | low micromolar to sub-micromolar | significant increases in EPAC1 immunoprecipitation |
| COc1ccc2ccc(OCC(=O)NS(=O)(=O)c3ccc(N)cc3OC)cc2c1 [Compound 25n, N-((4-Amino-2-methoxyphenyl)sulfonyl)-2-((7-methoxynaphthalen-2-yl)oxy)acetamide] | 600 | – | 7 ± 1 | 900 | low micromolar to sub-micromolar | significant increases in EPAC1 immunoprecipitation |
| COc1ccc2ccc(OCC(=O)NS(=O)(=O)c3ccc4ccccc4c3)cc2c1 [Compound 25q, 2-((7-Methoxynaphthalen-2-yl)oxy)-N-(naphthalen-2-ylsulfonyl)acetamide] | 500 | significantly enhanced binding potency | 14 ± 3 | 2200 | low micromolar to sub-micromolar | significant increases in EPAC1 immunoprecipitation |
